Results published in PubChem BioAssay (NCI).
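Cultured in 96-well plates, cells were exposed to test compound for 48 hours across five concentrations. GI50: concentration for 50% inhibition of growth. Definition used: TGI = concentration required for complete inhibition of growth.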

Legend:
Experiment in all cases: growth of human tumour cells (NCI), 48 h
NCI-H226 lung = tested on: NCI-H226 lung
NCI-H23 lung = tested on: NCI-H23 lung
NCI-H460 lung = tested on: NCI-H460 lung
NCI-H522 lung = tested on: NCI-H522 lung
OVCAR-3 ovarian = tested on: OVCAR-3 ovarian
OVCAR-4 ovarian = tested on: OVCAR-4 ovarian
OVCAR-5 ovarian = tested on: OVCAR-5 ovarian
OVCAR-8 ovarian = tested on: OVCAR-8 ovarian
PC-3 prostate = tested on: PC-3 prostate
RPMI-8226 leukemia = tested on: RPMI-8226 leukemia
RXF 393 renal = tested on: RXF 393 renal
SF-268 CNS = tested on: SF-268 CNS
SF-295 CNS = tested on: SF-295 CNS
SF-539 CNS = tested on: SF-539 CNS
SK-MEL-2 melanoma = tested on: SK-MEL-2 melanoma
SK-MEL-28 melanoma = tested on: SK-MEL-28 melanoma
SK-MEL-5 melanoma = tested on: SK-MEL-5 melanoma
SK-OV-3 ovarian = tested on: SK-OV-3 ovarian
SN12C renal = tested on: SN12C renal
SNB-19 CNS = tested on: SNB-19 CNS
SNB-75 CNS = tested on: SNB-75 CNS
T-47D breast = tested on: T-47D breast
TK-10 renal = tested on: TK-10 renal
U251 CNS = tested on: U251 CNS
UACC-257 melanoma = tested on: UACC-257 melanoma
UACC-62 melanoma = tested on: UACC-62 melanoma
UO-31 renal = tested on: UO-31 renal

O=C(/C=C/c1cccc(OCc2ccccc2)c1)c1nc2ccccc2[nH]1
GI50 (NCI-H226 lung): 24.3 µM | TGI (NCI-H226 lung): > 100 µM | GI50 (NCI-H23 lung): 18.3 µM | TGI (NCI-H23 lung): > 100 µM | GI50 (NCI-H460 lung): 15.4 µM | TGI (NCI-H460 lung): > 100 µM | GI50 (NCI-H522 lung): 26.3 µM | TGI (NCI-H522 lung): > 100 µM | GI50 (OVCAR-3 ovarian): 4.01 µM | TGI (OVCAR-3 ovarian): > 100 µM | GI50 (OVCAR-4 ovarian): 23.9 µM | TGI (OVCAR-4 ovarian): > 100 µM | GI50 (OVCAR-5 ovarian): 25.2 µM | TGI (OVCAR-5 ovarian): > 100 µM | GI50 (OVCAR-8 ovarian): 17 µM | TGI (OVCAR-8 ovarian): 72.6 µM | GI50 (PC-3 prostate): 15.9 µM | TGI (PC-3 prostate): > 100 µM | GI50 (RPMI-8226 leukemia): 2.86 µM | TGI (RPMI-8226 leukemia): 8.3 µM | GI50 (RXF 393 renal): 10.5 µM | TGI (RXF 393 renal): 27.9 µM | GI50 (SF-268 CNS): 26.2 µM | TGI (SF-268 CNS): > 100 µM | GI50 (SF-295 CNS): 15.6 µM | TGI (SF-295 CNS): 37.9 µM | GI50 (SF-539 CNS): 8.82 µM | TGI (SF-539 CNS): 26.7 µM | GI50 (SK-MEL-2 melanoma): 22.5 µM | TGI (SK-MEL-2 melanoma): 64.8 µM | GI50 (SK-MEL-28 melanoma): 25.2 µM | TGI (SK-MEL-28 melanoma): > 100 µM | GI50 (SK-MEL-5 melanoma): 39.1 µM | TGI (SK-MEL-5 melanoma): > 100 µM | GI50 (SK-OV-3 ovarian): 20.2 µM | TGI (SK-OV-3 ovarian): 73.9 µM | GI50 (SN12C renal): 38 µM | TGI (SN12C renal): > 100 µM | GI50 (SNB-19 CNS): 13.6 µM | TGI (SNB-19 CNS): 41.1 µM | GI50 (SNB-75 CNS): 14.4 µM | TGI (SNB-75 CNS): 48.7 µM | GI50 (T-47D breast): 6.9 µM | TGI (T-47D breast): > 100 µM | GI50 (TK-10 renal): 28.6 µM | TGI (TK-10 renal): > 100 µM | GI50 (U251 CNS): 3.03 µM | TGI (U251 CNS): 10.2 µM | GI50 (UACC-257 melanoma): > 100 µM | TGI (UACC-257 melanoma): > 100 µM | GI50 (UACC-62 melanoma): 15.6 µM | TGI (UACC-62 melanoma): > 100 µM | GI50 (UO-31 renal): 8.96 µM | TGI (UO-31 renal): > 100 µM
